In PubChem BioAssay AID743283 (The Scripps Research Institute Molecular Screening Center, 2014):
Active and inactive are the calls of the source.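 How the source made its calls: active means IC50 at or below 10 µM; inactive means IC50 above 10 µM.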

System: HEK293 Gal4-VP16 luciferase reporter counterscreen
Experiment: Gal4-VP16 luciferase reporter inhibitors, late-stage follow-up, counter-screen for COUP-TFII inhibitor project, cell-based, luminescence, HEK293, powder samples, round 000 (AID 743283)

`O=C(Nc1ccncc1)c1ccc(Cl)c(S(=O)(=O)N2CCc3ccccc32)c1` was tested, and the IC50 was 37 µM (inactive).

With `CC1Cc2cc(-c3csc(NC(=O)Cc4cccs4)n3)ccc2N1S(C)(=O)=O` (centres undefined) the IC50 was 11.5 µM (inactive).

In the case of `Cc1nn(C)c(C)c1CN(C)S(=O)(=O)c1ccc2ccccc2c1`, the IC50 is reported as > 85.4 µM (inactive).

In the case of `CCN(CC)S(=O)(=O)c1cccc(NC(=O)CNc2cccc(S(=O)(=O)N3CCCC3)c2)c1`, the IC50 is reported as > 85.4 µM (inactive).

With `Cc1sc2ncnc(NCCc3ccc(S(N)(=O)=O)cc3)c2c1C` the IC50 was > 85.4 µM (inactive).

In the case of `COc1ccc(CCNc2ncnc3sc(C)cc23)cc1OC`, the IC50 is reported as 30.2 µM (inactive).

In the case of `COc1ccc(CCNc2ncnc3sccc23)cc1OC`, the IC50 is reported as > 85.4 µM (inactive).

`Cc1cc(C)c(S(=O)(=O)NCc2ccncc2)c(C)c1` was tested, and the IC50 was > 85.4 µM (inactive).

`COc1ccc(CN(C)c2ccc(S(=O)(=O)N3CCN(C)CC3)cc2[N+](=O)[O-])cc1OC` was tested, and the IC50 was > 85.4 µM (inactive).

Compound `CC(=O)Nc1ccccc1OCC(=O)c1cc(C)n(Cc2cccs2)c1C` has an IC50 of 8.67 µM.

For `COc1ccc(C2=Nn3c([n+](C)c4ccccc43)SC2)cc1`, the IC50 was > 85.4 µM (inactive).

For `COc1ccc(NS(=O)(=O)c2cccc(NC(=O)c3ccc(Cl)nc3)c2)cc1`, the IC50 was > 28.5 µM (inactive).

In the case of `Cc1cc(-n2c(C)cc(C(=O)CSc3ncnc4ccccc34)c2C)no1`, the IC50 is reported as > 85.4 µM (inactive).

`Cc1cc(-n2nc3ccccc3n2)c2oc(SCC(=O)NC(C)(C)C)nc2c1` was tested, and the IC50 was 79.3 µM (inactive).

For `CN(CC1CCCO1)S(=O)(=O)c1ccc(C(=O)Nc2nc3cc4c(cc3s2)OCO4)cc1` (centres undefined), the IC50 was > 42.7 µM (inactive).

In the case of `Cn1nccc1C(=O)NC1CCCc2c1cnn2-c1ccc(C(C)(C)C)cc1` (centres undefined), the IC50 is reported as > 85.4 µM (inactive).

In the case of `CCOc1cc(S(=O)(=O)NCc2ccncc2)ccc1Cl`, the IC50 is reported as > 85.4 µM (inactive).

`Cc1oc(-c2ccc(Cl)cc2)nc1CS(=O)CC(=O)NCCCN1CCN(Cc2ccccc2)CC1` (centres undefined) was tested, and the IC50 was > 28.5 µM (inactive).

With `CCOC(=O)C1CCCN(S(=O)(=O)c2ccc(S(=O)(=O)N(CC)CC)cc2)C1` (centres undefined) the IC50 was > 85.4 µM (inactive).

`O=S(=O)(NCC1CCCO1)c1ccc(-c2ccc(S(=O)(=O)NCC3CCCO3)cc2)cc1` (centres undefined) was tested, and the IC50 was > 85.4 µM (inactive).

`CCC1CCCCN1C(=O)c1cc(COc2ccc3ncccc3c2)on1` (centres undefined) was tested, and the IC50 was > 85.4 µM (inactive).

For `CC(Nc1ncnc2ccccc12)c1ccccc1` (centres undefined), the IC50 was > 85.4 µM (inactive).

With `Cc1ccc(OCCN2CCN(c3ncnc4sc(C)c(C)c34)CC2)cc1` the IC50 was > 85.4 µM (inactive).

`COc1ccc(OC)c(CCNC(=O)Cn2nc(C)c3c(C)n(-c4ccc(C)cc4)nc3c2=O)c1` was tested, and the IC50 was > 28.5 µM (inactive).

For `Cc1sc2ncnc(NCC3COc4ccccc4O3)c2c1C` (centres undefined), the IC50 was > 85.4 µM (inactive).

With `COc1ccc(NS(=O)(=O)c2ccc(-c3coc(C)n3)cc2)cc1OC` the IC50 was > 85.4 µM (inactive).

`Cc1ccc(S(=O)(=O)CC2CSc3nc4ccccc4n32)cc1` (centres undefined) was tested, and the IC50 was > 85.4 µM (inactive).

For `CCOC(=O)N1CCN(C(=O)CSCC(=O)Nc2nc(-c3ccc(-c4ccccc4)cc3)cs2)CC1`, the IC50 was 33.9 µM (inactive).

For `Clc1ccc(OCCN2CCN(c3ncnc4sccc34)CC2)cc1`, the IC50 was > 85.4 µM (inactive).
